The record followed here is BindingDB's records for doi:10.1021/jm00185a027 (1981).

The target in the test is Aldo-keto reductase family 1 member B1 (Oryctolagus cuniculus) (UniProt P15122). As to the kind of experiment: Binding affinity towards rabbit aldose reductase.

As to `CN(C)S(=O)(=O)c1ccc2oc3ccc(C(=O)O)cc3c(=O)c2c1` [7-Dimethylsulfamoyl-9-oxo-9H-xanthene-2-carboxylic acid], the Ki was 0.4 µM.
